This note sets out measurements from PMC8479088, “Thiocysteine lyases as polyketide synthase domains installing hydropersulfide into natural products and a hydropersulfide methyltransferase” (Nature Communications, 2021).

One experiment deals with T1, GnmT-SH.
T1 construct: N-terminal His6 tag (same procedure as GnmP), E. coli, plasmid pBS21022; PLP-dependent
Nature of the experiment: pyruvate release, OPD derivatization, HPLC. Format: biochemical, Streptomyces sp. CB01883. The settings on record: 0.2 mM PLP, 20 mM KCl, 28 °C.

A further experiment deals with T2, WsmR-SH.
T2 construct: N-terminal His6 tag (same procedure as GnmP), E. coli, plasmid pBS22010; PLP-dependent
Nature of the experiment: pyruvate release, OPD derivatization, HPLC. Format: biochemical, Streptomyces sp. CB02120-2. The conditions noted are these: 0.2 mM PLP, 20 mM KCl, 28 °C.

The next experiment deals with T3, LnmJ-SH (Streptomyces atroolivaceus, UniProt Q8GGP2).
T3 construct: E. coli, plasmid pBS3109, published procedure; PLP-dependent
T3 sequence (Q8GGP2 entry or part of it): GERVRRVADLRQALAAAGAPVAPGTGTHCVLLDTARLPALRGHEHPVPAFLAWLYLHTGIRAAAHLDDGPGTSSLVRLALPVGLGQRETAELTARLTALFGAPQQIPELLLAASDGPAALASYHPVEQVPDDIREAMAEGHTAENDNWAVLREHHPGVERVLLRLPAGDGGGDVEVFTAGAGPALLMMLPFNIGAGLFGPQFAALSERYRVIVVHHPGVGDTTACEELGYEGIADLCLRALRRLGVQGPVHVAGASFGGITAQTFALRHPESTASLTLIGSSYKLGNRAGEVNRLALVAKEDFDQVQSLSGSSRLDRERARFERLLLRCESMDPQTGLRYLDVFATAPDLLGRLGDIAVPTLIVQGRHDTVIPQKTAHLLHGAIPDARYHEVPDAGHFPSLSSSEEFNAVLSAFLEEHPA
Nature of the experiment: pyruvate release, OPD derivatization, HPLC. The experiment is classed as biochemical. The conditions noted are these: 0.2 mM PLP, 20 mM KCl, 28 °C.

In experiment [1] the test system is T4, GnmP.
T4 construct: N-terminal His6-tagged GnmP, E. coli BL21(DE3), plasmid pBS21021
Nature of the experiment: HPLC of S-methylated product. Format: biochemical, Streptomyces sp. CB01883. The conditions noted are these: 2 mM SAM; 50 mM sodium phosphate pH 8.0; 28 °C.

Experiment [2] deals with T4, GnmP. As to the kind of experiment: HPLC of methylated product […], WsmR-SH coupled. Format: biochemical, Streptomyces sp. CB01883. The conditions noted are these: 7 generated in situ from 9 as surrogate substrate by 220 µM WsmR-SH; 2 mM SAM; 50 mM sodium phosphate pH 8.0; 28 °C; methods print substrate range in mM.

On to `CC(=O)NCCSC(=O)CC(C)(C)SSC[C@H](N)C(=O)O` [compound 17, SNAC of a truncated L-thiocysteine-polyketide adduct], for which the Michaelis constant (Km) (usually the concentration of substrate that gives half-maximal velocity) in the experiment on GnmT-SH (50 mM sodium phosphate pH 7.2) was 7.7 ± 1.2 mM; with WsmR-SH (50 mM sodium phosphate pH 7.2), 6.6 ± 0.7 mM; on LnmJ-SH (50 mM sodium phosphate pH 7.2), 9 ± 0.9 mM.

Consider L-cysteinyl-GNM B adduct [compound 9], for which the Km came to 3.2 ± 0.3 mM in the experiment with GnmT-SH (50 mM sodium phosphate pH 8.0), 1.45 ± 0.12 mM with WsmR-SH (50 mM sodium phosphate pH 8.0) and 7.04 ± 0.84 mM on LnmJ-SH (Tris-HCl pH 8.5).

For `CC(=O)NCCSC(=O)CC(C)(C)SC[C@H](N)C(=O)O` [compound 16, N-acetylcysteamine thioester (SNAC) of a truncated L-cysteine-polyketide adduct], the results for the Michaelis-Menten constant (Km) in the experiment with GnmT-SH (50 mM sodium phosphate pH 7.2), in the experiment with WsmR-SH (50 mM sodium phosphate pH 7.2) and at LnmJ-SH (50 mM sodium phosphate pH 7.2) were 41 ± 5 mM, 54 ± 10 mM and 69 ± 11 mM, respectively.

Turning to GNM B [compound 4], the Km with GnmP [1] stood at 0.0121 ± 0.0022 mM.

As for GNM P [compound 7], in the experiment with GnmP [2], the Km is 0.00245 ± 0.00041 mM.
